Here are results for 1 compound from publication PMC12648656, “Palladium(II) Complexes with Noncovalent Interactions with DNA: Solution Speciation Controlled by Solvent Identity, pH, and Concentration” (Inorganic Chemistry, 2025).

One data set concerns pBR322 plasmid DNA. The experiment in a line: Agarose gel electrophoresis mobility shift. The class given is binding. The following applies: r i 0.01 to 0.20, 24 h, 37 °C. The protocol:
Complexes (2) and (3) were incubated at 37 °C with a concentration of 0.0625 μg/μL pBR322 plasmid DNA at different concentrations expressed as r i = complex:DNA (base pair) ratio. The r i used was from 0.01 to 0.20, in a total volume of 20 μL. After an incubation period of 24 h, the mobility of the complex-treated pBR322 samples was analyzed by gel electrophoresis at 70 V in Tris/acetate/EDTA buffer. A control of pBR322 was also incubated, and a 1 kb ladder aliquot was loaded into lane 1 of the gel. The gel was stained with an ethidium bromide aqueous solution, and DNA bands were visualized with a UV-transilluminator UVITEC Cambridge UVIDOC HD2 instrument. The studies were performed with 3% (v/v) DMSO as the final solution.

The nature of data set [1]: Spectrophotometric (UV-vis) pH titrations for proton dissociation constants. It is filed as physicochemical. To be noted: 60% (v/v) DMSO/H2O. How it is done:
Spectrophotometric titrations were applied to study the equilibrium processes (proton dissociation and complex dissociation/formation) in DMSO/H2O mixtures due to the limited aqueous solubility of the compounds. The calibration of the electrode system was performed by strong acid–strong base pH-potentiometric titrations in 30% (v/v) and 60% (v/v) DMSO/H2O solvent mixtures at 25.0 ± 0.1 °C as described in our previous works. , KCl (0.1 M) was the supporting electrolyte to maintain constant ionic strength, which refers to the chloride ion concentration in blood plasma. […] The initial sample volume was 5 mL. Spectrophotometric titrations were performed in the pH range 1.8–12.5 for 30% (v/v) DMSO/H2O medium and 1.8–14.0 for 60% (v/v) DMSO/H2O medium. Prior to the titrations, purified argon was passed through the samples for approximately 10 min to remove CO2 traces, and argon was also passed over the samples during these measurements. The proton dissociation constants were calculated by using the computer program PSEQUAD.

Data set [2] concerns Enterococcus faecalis (ATCC 29212). In words: Antibacterial MIC, broth dilution. It is filed as cell-based. To be noted: E. faecalis, 18 h, 37 °C. The protocol: (§1) Antibacterial activity was determined for the title compounds in various Gram-negative and Gram-positive bacterial strains, namely Klebsiella pneumoniae, Escherichia coli (ATCC 25922), Staphylococcus aureus (272123), methicillin-resistant Staphylococcus aureus (ATCC 43300), and Enterococcus faecalis (ATCC 29212). The stock solutions of the tested compounds were prepared in DMSO at a 5 mM concentration. […] All stock solutions were diluted in 100 μL of Mueller Hinton Broth, and then two-fold serial dilutions were performed. Then, a 10^–4 dilution of an overnight bacterial culture in 100 μL of medium was added to each well, except for the medium control wells. The highest concentration of the compounds in the tested samples was 100 μM. The plates were incubated at 37 °C for 18 h. After that, the MIC values were determined by visual inspection.
On the technique in general: Broth dilution looks for growth in wells or tubes with falling amounts of substance.

Data set [3] relates to Escherichia coli (ATCC 25922). In words: Antibacterial MIC, broth dilution. It is filed as cell-based. The following applies: E. coli, 18 h, 37 °C. How it is done: as §1
The next data set deals with Klebsiella pneumoniae. In words: Antibacterial MIC, broth dilution. The class given is cell-based. The following applies: K. pneumoniae, 18 h, 37 °C. The protocol:
as §1

The subject of data set [4] is Staphylococcus aureus (272123). In words: Antibacterial MIC, broth dilution. It is filed as cell-based. The following applies: S. aureus, 18 h, 37 °C. How it is done: as §1
For data set [5], the system named is methicillin-resistant Staphylococcus aureus (ATCC 43300). The experiment in a line: microbe, parasite or virus in culture. The class given is cell-based. To be noted: S. aureus (MRSA), 18 h, 37 °C. The protocol: as §1
Data set [6] concerns Colo 205 human colon cancer cell line. The experiment in a line: In vitro cytotoxicity, MTT. The class given is cell-based. To be noted: Colo 205, 72 h exposure. How it is done:
(§2) Cell culture reagents were obtained from Merck, and plasticware was obtained from Sarstedt. Human colon adenocarcinoma cell line Colo 205 (ATCC CCL-222) and MCF7 (ATCC HTB-22) breast cancer cells were purchased from LGC Promochem. Cancer cells were cultured in RPMI 1640 medium supplemented with 10% heat-inactivated fetal bovine serum, 2 mM L-glutamine, and 1 mM sodium pyruvate and buffered with 100 mM HEPES. The cells were incubated at 37 °C in a 5% CO2, 95% air atmosphere and were detached with Trypsin-Versene (EDTA) solution for 5 min at 37 °C.
(§3) The tested ligands were dissolved in DMSO, and the stock solutions (5 mM) were diluted in complete culture medium. Two-fold serial dilutions of compounds were made in 100 μL of the medium, horizontally. The semiadherent colon adenocarcinoma cells were treated with Trypsin-Versene (EDTA) solution. They were adjusted to a density of 1 × 10^4 cells in 100 μL of RPMI 1640 medium and were added to each well, with the exception of the medium control wells. The final volume of the wells containing compounds and cells was 200 μL. The plates containing the cells were incubated at 37 °C for 72 h; at the end of the incubation period, 20 μL of MTT solution (5 mg/mL) was added to each well. After incubation at 37 °C for 4 h, 100 μL of sodium dodecyl sulfate solution (10% in 0.01 M HCl) was added to each well, and the plates were further incubated at 37 °C overnight. Cell growth was determined by measuring the optical density (OD) at 540 and 630 nm with a Multiskan EX plate reader (Thermo Labsystems).
(§4) Curves for the data obtained on cancer cells were fitted by GraphPad Prism software using the sigmoidal dose–response model (comparing variable and fixed slopes). The IC50 values were always obtained from at least three independent experiments.

The subject of data set [7] is MCF7 human breast cancer cell line. In words: In vitro cytotoxicity, MTT. The class given is cell-based. The following applies: MCF7, 72 h exposure. The protocol: as §2, §3, §4
A short description of data set [8]: Stability in physiological buffers (Tris, phosphate, HEPES) by UV-vis. It is filed as physicochemical. The protocol: The reaction of the metal complexes (2) and (3) with buffer components was followed in an array of DMSO percentages, from 1% to 60% (v/v) DMSO/H2O (pH 7.4) medium. The samples were prepared by dilution of the stock solution of the respective complex in DMSO (5 mM) with 5 mM Tris 1% (v/v) DMSO/H2O or 5 mM phosphate buffers 60% (v/v) DMSO/H2O (pH 7.40 in both cases), reaching a final concentration of 10^–6 to 10^–4 M. The UV–vis spectra of the final samples were followed over time at 37 °C for up to 24 h.

Where only a bound is given, the exact number is not on record here.

Take `Clc1ccc(N=C2N[N+](=Cc3c[nH]cn3)[Pd-2]3([S]C(Nc4ccc(Cl)cc4)=N[N+]3=Cc3c[nH]cn3)[S]2)cc1` (stereo not drawn) [(2), Bis(1H-imidazole-4-carboxaldehyde-4N-p-chlorophenylthiosemicarbazonato)palladium(II)]: the “effect on electrophoretic mobility of supercoiled pBR322 (pure form)” value with pBR322 plasmid DNA is “small unwinding”. This compound returned a pKa1 in data set [1] (I = 0.10 M (KCl), 25.0 °C) of 2.97 ± 0.02. Moreover, the pKa2 in [1] (I = 0.10 M (KCl), 25.0 °C) was determined as 8.40 ± 0.02. In addition, the pKa3 in data set [1] (I = 0.10 M (KCl), 25.0 °C) was 11.31 ± 0.01. Besides, the “reduction of proton dissociation constant of step I compared to the ligand” value in data set [1] (same medium) was 0.8 logarithm units. The “reduction of proton dissociation constant of step II compared to the ligand” value in [1] (same medium) turned out to be 2.7 logarithm units. Besides, the MIC (in [2]; in data set [3]; against Klebsiella pneumoniae; in data set [4]; in data set [5]) was above 100 µM in each case. For the same compound, the IC50 in data set [6] is 11.8 ± 0.35 µM; in [7], 1.55 ± 0.03 µM. Also, the “behaviour in HEPES buffer” value in data set [8] (HEPES, pH 7.4, 0.1 M chloride, 60% DMSO) is reported as “formed precipitation”. In data set [8] (Tris buffer containing 3% (v/v) DMSO, pH 7.4, 20.0 μM), the “time stable in solution, no precipitation” value was “up to 24 h”. For the same compound, the “stability after 24 h” value in data set [8] (Tris buffer, 60% DMSO) was “decreased the stability”. Besides, the “behaviour in phosphate buffer” value in data set [8] (pH 7.4, 0.1 M chloride, 3% (v/v) DMSO) is recorded as “precipitated”; in [8] (pH 7.4, 0.1 M chloride, 60% (v/v) DMSO, first 10 h) it was “major structural changes”.

As a reminder, the IC50 is the concentration at which inhibition is half-maximal.
